Data taken from paper PMC3356383, “Efficacious Intermittent Dosing of a Novel JAK2 Inhibitor in Mouse Models of Polycythemia Vera” (PLoS ONE, 2012).
Marks after values point to notes of the source that are not given here.

Tests used:
[1] = test system: pSTAT5 in BaF3 (JAK2 WT) cells; test: Cell pSTAT5 AlphaScreen SureFire assay; assay type: cell-based; settings: Mus musculus, 1 hour, EPO-stimulated
Experimental: (§1) Measurement of pSTAT5 in cells was performed essentially as described previously using an AlphaScreen™ SureFire™ (Perkin Elmer) assay. BaF3 (JAK2 WT), BaF3 (JAK2 V617F), and CTLL-2 cells were exposed to compound for 60 min prior to lysis and subsequent detection of pSTAT5 via AlphaScreen technology. Prior to compound treatment, BaF3 (JAK2 WT) and CTLL-2 cells were cytokine starved overnight, with EPO or IL-2 added 15 minutes prior to lysis, respectively.

[2] = test system: pSTAT5 in BaF3 (JAK2 V617F) cells; test: Cell pSTAT5 AlphaScreen SureFire assay; assay type: cell-based; settings: Mus musculus, 1 hour
Experimental: as §1

[3] = test system: pSTAT5 in CTLL-2 cells (JAK1 and JAK3 dependent); test: Cell pSTAT5 AlphaScreen SureFire assay; assay type: cell-based
Experimental: as §1

[4] = test system: bone marrow cell populations; test: Cell populations in bone marrow of normal mice; assay type: in vivo; settings: 54 mpk
Experimental: Cells were stained in PBS, 0.5% BSA with antibodies for 15 min on ice. Stained cells were acquired on a 4-laser LSR-II (BD Biosciences) and data analyzed using FlowJo software (Treestar). Dead cells were labeled with the blue fluorescent LIVE/DEAD reactive dye (Invitrogen) and excluded from the analysis.
Monoclonal antibodies (anti-mouse): CD3, CD4, CD5, CD8, CD11b, CD19, CD21/35, CD23, CD25, CD43, CD44, CD49b, CD69, CD71, CD93, CD117, B220, GR-1, IgD, NK1.1, NKG2A/C/E, NKG2D, Ter119 were purchased from BD Biosciences; CD4, CD8, CD49b, CD62L, TCRβ, TCRγδ from eBioscience; GR-1 from Invitrogen; CD43 from Miltenyi Biotec. Goat anti-mouse IgM-FITC, (μ chain specific) from Jackson Immuno Research.
JAK2 and its family members JAK1 and JAK3 are known to signal downstream of cytokines that play essential roles in the development of lymphoid cell populations. To examine more thoroughly the effects of JAK2 inhibition on lymphoid cells, we analyzed wild-type (C57BL/6) mice treated with 54 mpk MRLB-11055 for 3 days, 6 days or up to 5 cycles of 3 days (“on”) followed by a 4 day holiday (“off”).
Supplementary file pone.0037207.s006.doc: Table S4 Effect of MRLB-11055 on Cell Populations in Bone Marrow of Normal Mice. Cell counts measured by Advia. Cycles refer to 3 days of treatment followed by a 4 day holiday. *p<0.05 in Student T test when comparing vehicle 5 cycle with treatment 5 cycle and vehicle 2 cycle with treatment 2 cycle, resp. (DOC) Click here for additional data file.

JAK1 (JH1) = target: T1, JAK1 (JH1) (Homo sapiens, UniProt P23458); test: JAK1 enzyme assay, HTRF detection; assay type: biochemical
T1 construct: JAK1 (JH1)
Experimental: (§2) JAK1, JAK2, JAK3, and TYK2 kinase activity assays were performed as described previously using HTRF detection technology and the peptide substrate amino hexanoyl biotin-EQEDEPEGDYFEWLE-NH2. Each reaction was incubated between 60 and 80 min at room temperature. Final conditions were as follows: JAK1, 400 pM enzyme, Hepes pH 7.5, 10 mM MgCl2, 0.01% Brij-35, 1 mM EGTA, 0.1 mg/ml BSA), 2 mM DTT, 2 µM peptide substrate, 25 µM MgATP, 5% DMSO and the desired concentration of subject compound; JAK2, 25 pM enzyme (JH1, JH1–JH2^wt, JH1–JH2^V617F domains), 2 µM peptide substrate, 15 µM MgATP, 5 mM MgCl2, 100 mM NaCl, 2 mM DTT, 0.1 mg/ml BSA, 50 mM Tris (pH 7.4), 5% DMSO and the desired concentration of subject compound; JAK3, 250 pM enzyme, 50 mM Hepes pH 7.5, 10 mM MgCl2, 0.01% Brij-35, 1 mM EGTA, 0.1 mg/ml BSA), 2 mM DTT, 2.0 µM peptide substrate, 25 µM MgATP, 5% DMSO, and the desired concentration of subject compound; TYK2, 125 pM enzyme, 50 mM Hepes pH 7.5, 10 mM MgCl2, 0.01% Brij-35, 1 mM EGTA, 0.1 mg/ml BSA, 2 mM DTT, 2.0 µM peptide substrate, 15 µM MgATP, 5% DMSO and the desired concentration of subject compound.

JAK2 (JH1–JH2) V617F = target: T2, JAK2 (JH1–JH2) V617F (Homo sapiens, UniProt O60674, V617F); test: JAK2 enzyme assay, HTRF detection; assay type: biochemical; settings: kinase activity, mean, n = 3, read-out: IC50, cell-free JAK2 (JH1–JH2) V617F
T2 construct: JAK2, 25 pM enzyme (JH1, JH1–JH2^wt, JH1–JH2^V617F domains)
Experimental: as §2

JAK2 (JH1–JH2) WT = target: T3, JAK2 (JH1–JH2) WT (Homo sapiens, UniProt O60674); test: JAK2 enzyme assay, HTRF detection; assay type: biochemical; settings: kinase activity, mean, n = 3, read-out: IC50, cell-free JAK2 (JH1–JH2) WT
T3 construct: JAK2, 25 pM enzyme (JH1, JH1–JH2^wt, JH1–JH2^V617F domains)
Experimental: as §2

JAK2 (JH1) WT = target: T4, JAK2 (JH1) WT (Homo sapiens, UniProt O60674); test: JAK2 enzyme assay, HTRF detection; assay type: biochemical
T4 construct: JAK2, 25 pM enzyme (JH1, JH1–JH2^wt, JH1–JH2^V617F domains)
Experimental: as §2

220 recombinant kinases = test: Kinase profiling (Millipore), whole panel; assay type: biochemical; settings: 198 of 220 tested kinases; based on JAK2 (JH1-JH2) IC50
Experimental: Kinase profiling was conducted by Millipore (Billerica, MA).

[5] = 2 cycles (3 days treatment, 4 day holiday)
[6] = 5 cycles (3 days treatment, 4 day holiday)

T4 sequence (O60674 849-1124 limits assumed): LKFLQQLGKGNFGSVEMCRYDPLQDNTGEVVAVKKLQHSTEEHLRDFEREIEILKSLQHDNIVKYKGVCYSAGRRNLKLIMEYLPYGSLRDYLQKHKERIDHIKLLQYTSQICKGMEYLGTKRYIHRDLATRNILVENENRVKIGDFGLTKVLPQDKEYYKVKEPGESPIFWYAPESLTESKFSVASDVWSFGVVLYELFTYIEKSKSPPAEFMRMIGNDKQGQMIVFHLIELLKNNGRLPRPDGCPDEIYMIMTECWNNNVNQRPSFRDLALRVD
T1 sequence (P23458 875-1153 limits assumed, species assumed): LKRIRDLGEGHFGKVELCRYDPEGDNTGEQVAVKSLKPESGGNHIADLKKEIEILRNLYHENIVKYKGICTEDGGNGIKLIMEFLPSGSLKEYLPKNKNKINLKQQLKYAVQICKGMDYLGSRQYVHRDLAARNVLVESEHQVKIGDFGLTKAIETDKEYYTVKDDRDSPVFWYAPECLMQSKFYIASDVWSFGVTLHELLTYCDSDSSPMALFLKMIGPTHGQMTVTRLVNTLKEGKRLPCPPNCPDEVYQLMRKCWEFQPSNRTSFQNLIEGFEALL
T3 sequence (O60674 532-1132 limits assumed): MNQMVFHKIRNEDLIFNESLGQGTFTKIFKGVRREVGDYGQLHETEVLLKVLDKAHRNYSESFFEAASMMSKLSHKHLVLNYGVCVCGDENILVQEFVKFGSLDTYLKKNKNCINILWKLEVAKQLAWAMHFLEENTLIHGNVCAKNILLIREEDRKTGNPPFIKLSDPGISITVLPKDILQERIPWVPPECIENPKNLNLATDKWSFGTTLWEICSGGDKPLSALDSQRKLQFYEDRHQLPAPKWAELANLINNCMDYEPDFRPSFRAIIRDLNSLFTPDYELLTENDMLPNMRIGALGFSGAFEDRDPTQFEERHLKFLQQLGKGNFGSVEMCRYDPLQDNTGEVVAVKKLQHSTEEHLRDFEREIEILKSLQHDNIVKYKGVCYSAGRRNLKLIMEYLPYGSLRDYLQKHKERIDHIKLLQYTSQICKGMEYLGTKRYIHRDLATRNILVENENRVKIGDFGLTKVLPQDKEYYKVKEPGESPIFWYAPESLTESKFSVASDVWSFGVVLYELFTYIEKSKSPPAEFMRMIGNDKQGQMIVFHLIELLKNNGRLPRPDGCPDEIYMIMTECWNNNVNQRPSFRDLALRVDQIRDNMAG
T2 sequence (O60674 532-1132 V617F limits assumed): as the sequence (O60674 532-1132 limits assumed) above, with V86F counted along it

## NC(=O)c1cnc(N[C@H](C2CC2)C(F)(F)F)c2c1[nH]c1cc(-c3cnc(N)nc3)ccc12 [MRLB-11055]
[1]
  IC50: 23 nM
[2]
  IC50: 11 nM
[3]
  Times less potent on IL-2 stimulated CTLL-2 pSTAT5 than on JAK2V617F-mediated pSTAT5 in BaF3 cells: 6 times
[3]; Mus musculus, CTLL-2, 1 hour, IL2-stimulated, JAK1 and JAK3 dependent
  IC50: 66 nM
[4]; [5]
  B-Cells (CD19+B220+) Immature AA4.1+ IgM+: 0.70 ± 0.04* x 10^6
  B-Cells (CD19+B220+) Mature AA4.1- IgM+: 0.54 ± 0.12 x 10^6
  B-Cells (CD19+B220+) Pro/pre AA4.1+ IgM-: 2.78 ± 0.92 x 10^6
  B-Cells (CD19+B220+) Total: 4.05 ± 0.94* x 10^6
  Erythroid Progenitors: 8.3 ± 0.9 x 10^6
  Mature Erythrocytes: 13.5 ± 0.7 x 10^6
  Myeloid GR-1+ CD11b+: 8.33 ± 0.85* x 10^6
  Nucleated Cells: 25.0 ± 4.0 x 10^6
[4]; [6]
  B-Cells (CD19+B220+) Immature AA4.1+ IgM+: 0.15 ± 0.05* x 10^6
  B-Cells (CD19+B220+) Mature AA4.1- IgM+: 0.38 ± 0.17* x 10^6
  B-Cells (CD19+B220+) Pro/pre AA4.1+ IgM-: 1.22 ± 0.74 x 10^6
  B-Cells (CD19+B220+) Total: 1.76 ± 0.87* x 10^6
  Erythroid Progenitors: 5.9 ± 1.9 x 10^6
  Mature Erythrocytes: 10.3 ± 3.2 x 10^6
  Myeloid GR-1+ CD11b+: 7.83 ± 3.46 x 10^6
  Nucleated Cells: 19.6 ± 7.2 x 10^6
[4]; 3 days
  B-Cells (CD19+B220+) Immature AA4.1+ IgM+: 0.22 ± 0.09* x 10^6
  B-Cells (CD19+B220+) Mature AA4.1- IgM+: 0.32 ± 0.17* x 10^6
  B-Cells (CD19+B220+) Pro/pre AA4.1+ IgM-: 0.24 ± 0.10* x 10^6
  B-Cells (CD19+B220+) Total: 0.78 ± 0.35* x 10^6
  Erythroid Progenitors: 0.5 ± 0.3* x 10^6
  Mature Erythrocytes: 25.0 ± 5.5* x 10^6
  Myeloid GR-1+ CD11b+: 2.07 ± 0.55* x 10^6
  Nucleated Cells: 4.7 ± 1.6* x 10^6
[4]; 6 days
  B-Cells (CD19+B220+) Immature AA4.1+ IgM+: 0.11 ± 0.03* x 10^6
  B-Cells (CD19+B220+) Mature AA4.1- IgM+: 0.59 ± 0.52 x 10^6
  B-Cells (CD19+B220+) Pro/pre AA4.1+ IgM-: 0.08 ± 0.03* x 10^6
  B-Cells (CD19+B220+) Total: 0.79 ± 0.54* x 10^6
  Erythroid Progenitors: 1.4 ± 0.8* x 10^6
  Mature Erythrocytes: 18.7 ± 2.5* x 10^6
  Myeloid GR-1+ CD11b+: 1.90 ± 0.68* x 10^6
  Nucleated Cells: 5.4 ± 2.2* x 10^6
JAK1 (JH1); HTRF, mean, n = 3, read-out: IC50, cell-free JAK1 (JH1)
  IC50: 1.5 nM
JAK1 (JH1); cell-free assays
  Selectivity for JAK2 over JAK1: 20 fold
JAK2 (JH1–JH2) V617F
  IC50: 0.35 nM
JAK2 (JH1–JH2) WT
  IC50: 0.78 nM
JAK2 (JH1) WT; data not shown
  Manner of inhibition of the JH1 kinase domain: ATP-competitive
JAK2 (JH1) WT; kinase activity, HTRF assay, mean, n = 3, read-out: IC50, cell-free JAK2 (JH1) WT
  IC50: 0.08 nM
220 recombinant kinases
  Fold selectivity over JAK2 for 198/220 kinases: >25-fold over JAK2
